# Measured values taken from ChEMBL document CHEMBL5653607, “KN-62, 1-[N,O-bis(5-isoquinolinesulfonyl)-N-methyl-L-tyrosyl]-4-phenylpiperazi ne, a specific inhibitor of Ca2+/calmodulin-dependent protein kinase II” (J Biol Chem, 1990).
# Active and inactive are the calls of the source. No cut-off for these calls is given here.
# Columns and labels:
# [1] = Inhibition of MLC (unknown origin) assessed as inhibition constant; design: species or system Homo sapiens
# [2] = Inhibition of Ca2+/CaM kinase II (unknown origin) assessed as inhibition constant; design: species or system Homo sapiens
# [3] = Inhibition of Ca2+/CaM kinase II (unknown origin); design: species or system Homo sapiens
# Rattus norvegicus [4] = organism: Rattus norvegicus; assay: Binding affinity to rat brain Ca2+/CaM kinase II in presence of [gamma-33P]ATP by Sepharose coupled chromatography based analysis; assay type: tissue-based
# [5] = molecular target: Calcium/calmodulin-dependent protein kinase type II subunit alpha (Rattus norvegicus, UniProt P11275); assay: Inhibition of rat brain Ca2+/CaM kinase II alpha subunit autophosphorylation measured after 2 mins in presence of [gamma-33P]ATP by SDS-PAGE analysis; assay type: tissue-based
# PC12D [6] = assay: Inhibition of A23187-induced Ca2+/CaM kinase II 53-kDa autophosphorylation in [32P] orthophosphate labeled rat PC12D cells preincubated with compound for 1 hr followed by A23187 induction and measured after 30 mins by immunoprecipitation method; assay type: cell-based; conditions: dose 0.5-1 µM, time 1.5 hrs
# Gallus gallus = organism: Gallus gallus; assay: Inhibition of chicken gizzard MLC at 45 uM in presence of [gamma-33P]ATP relative to control
# [7] = Inhibition of rat brain Ca2+/CaM kinase II autophosphorylation assessed as decrease in exogenous substrate phosphorylation at 50 uM incubated for 1 min in presence of [gamma-33P]ATP relative to control; design: scale not given: the % may be the effect or the level left
# Rattus norvegicus [8] = organism: Rattus norvegicus; assay: Inhibition of rat brain Ca2+/CaM kinase II autophosphorylation assessed as decrease in exogenous substrate phosphorylation at 50 uM incubated for 1 min in presence of [gamma-33P]ATP measured after phosphorylation; assay type: tissue-based
# [9] = molecular target: cAMP-dependent protein kinase (PKA) (Homo sapiens) (UniProt P22694+P17612+P22612); assay: Inhibition of protein kinase A (unknown origin) at 45 uM relative to control; assay type: protein assay
# [10] = molecular target: Protein kinase C (PKC) (Homo sapiens) (UniProt O94806+P41743+P17252+P05129+Q05655+P05771+Q05513+Q02156+P24723+Q15139+Q04759); assay: Inhibition of protein kinase C (unknown origin) at 45 uM relative to control; assay type: protein assay
# [11] = Inhibition of rat brain Ca2+/CaM kinase II autophosphorylation measured at Pi/mg enzyme after phosphorylation at 50 uM incubated for 5 min in presence of [gamma-33P]ATP
# [12] = Inhibition of rat brain Ca2+/CaM kinase II autophosphorylation assessed as incorporation of 32P into myosin kDa light chain measured at Pi/mg enzyme at 50 uM incubated for 1 min in presence of [gamma-33P]ATP
# PC12D [13] = assay: Inhibition of A23187-induced Ca2+/CaM kinase II 53-kDa in [32P] orthophosphate labeled rat PC12D cells assessed as increase in phosphorylation at 0.5 to 1 uM preincubated with compound for 1 hr followed by A23187 induction and measured after 30 mins by immunoprecipitation method; assay type: cell-based; conditions: dose 0.5-1 µM, time 1.5 hrs
# Rattus norvegicus [14] = organism: Rattus norvegicus; assay: Competitive inhibition of rat brain Ca2+/CaM kinase II at 0.5 to 2.5 uM in presence of calmodulin and varying concentration of [gamma-33P]ATP; assay type: tissue-based; conditions: dose 0.5-2.5 µM
# Homo sapiens = organism: Homo sapiens; assay: Inhibition of Ca2+/CaM kinase II (unknown origin) at 1 uM in presence of [gamma-33P]ATP relative to control
# [15] = molecular target: Calcium/calmodulin-dependent protein kinase type II subunit beta (Rattus norvegicus, UniProt P08413); assay: Inhibition of rat brain Ca2+/CaM kinase II beta subunit autophosphorylation measured after 2 mins in presence of [gamma-33P]ATP by SDS-PAGE analysis; assay type: tissue-based
# PC12D [16] = assay: Inhibition of A23187-induced Ca2+/CaM kinase II 40-kDa in [32P] orthophosphate labeled rat PC12D cells assessed as increase in phosphorylation at 0.5 to 1 uM preincubated with compound for 1 hr followed by A23187 induction and measured after 30 mins by immunoprecipitation method; assay type: cell-based; conditions: dose 0.5-1 µM, time 1.5 hrs
# [17] = Inhibition of rat brain Ca2+/CaM kinase II independent activity assessed as fold increase in enzyme activity at 50 uM incubated for 1 min
# [18] = Competitive inhibition of rat brain Ca2+/CaM kinase II assessed as inhibition constant in presence of [gamma-33P]ATP and varying concentration of calmodulin; assay type: tissue-based
# Sequence of Calcium/calmodulin-dependent protein kinase type II subunit alpha (P11275 whole entry): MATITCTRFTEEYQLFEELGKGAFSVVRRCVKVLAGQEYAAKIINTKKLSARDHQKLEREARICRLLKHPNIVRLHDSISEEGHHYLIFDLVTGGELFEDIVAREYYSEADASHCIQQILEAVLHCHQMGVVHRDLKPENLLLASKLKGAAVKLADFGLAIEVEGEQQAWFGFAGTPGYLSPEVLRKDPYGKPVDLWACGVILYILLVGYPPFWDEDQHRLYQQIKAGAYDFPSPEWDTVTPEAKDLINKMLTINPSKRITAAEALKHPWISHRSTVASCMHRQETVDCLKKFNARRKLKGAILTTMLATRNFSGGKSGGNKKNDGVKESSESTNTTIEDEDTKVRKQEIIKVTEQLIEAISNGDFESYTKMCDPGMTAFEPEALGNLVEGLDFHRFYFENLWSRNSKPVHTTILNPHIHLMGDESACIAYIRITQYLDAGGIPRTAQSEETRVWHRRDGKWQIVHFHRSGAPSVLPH
# Sequence of Calcium/calmodulin-dependent protein kinase type II subunit beta (P08413 whole entry): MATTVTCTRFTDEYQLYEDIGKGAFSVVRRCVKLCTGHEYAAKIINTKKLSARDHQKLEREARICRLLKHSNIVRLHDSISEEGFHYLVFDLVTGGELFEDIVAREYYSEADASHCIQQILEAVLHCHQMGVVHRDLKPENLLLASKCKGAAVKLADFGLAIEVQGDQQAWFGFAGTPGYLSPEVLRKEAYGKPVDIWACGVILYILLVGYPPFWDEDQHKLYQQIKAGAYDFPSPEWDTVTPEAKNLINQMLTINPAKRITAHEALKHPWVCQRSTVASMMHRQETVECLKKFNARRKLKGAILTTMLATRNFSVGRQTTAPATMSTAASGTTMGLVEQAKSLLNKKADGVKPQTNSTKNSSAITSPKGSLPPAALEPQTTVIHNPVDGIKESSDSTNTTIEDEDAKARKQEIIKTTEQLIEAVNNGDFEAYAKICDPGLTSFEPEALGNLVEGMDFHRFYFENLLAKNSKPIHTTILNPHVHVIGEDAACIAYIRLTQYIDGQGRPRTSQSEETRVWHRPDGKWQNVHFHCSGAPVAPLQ
Ki [1] [µM],Ki [2] [µM],IC50 [3] [µM],Activity (Rattus norvegicus [4]),IC50 [5] [µM],inhibition (Gallus gallus) [%],Activity (Rattus norvegicus [8]),inhibition [9] [%],inhibition [10] [%],inhibition (Rattus norvegicus [14]),inhibition (Homo sapiens) [%],IC50 [15] [µM],Ki [18] [µM],Structure (SMILES),inhibition (PC12D [6]),Activity [7] [%],Activity [11] [nmol],Activity [12] [nmol],Activity (PC12D [13]),Activity (PC12D [16]),fold change (FC) [17]
18,7.5,15,,,,,,,,,,,NCCCCCCNS(=O)(=O)c1cccc2c(Cl)cccc12,,,,,,,
,,,Active,0.45,12,inactive,22,12,inactive,80,1,0.9,CN([C@@H](Cc1ccc(OS(=O)(=O)c2cccc3cnccc23)cc1)C(=O)N1CCN(c2ccccc2)CC1)S(=O)(=O)c1cccc2cnccc12,Dose-Dependent Effect,75,8.1,1.8,Active,inactive,2.5
